Experimental data as given in patent US10526316B2, “Quinoxaline and pyridopyrazine derivatives as PI3Kβ inhibitors” (Janssen Pharmaceutica NV, priority 2015, dated 2020).
pIC50, pKd: −log10 of the molar value. Read-outs that look alike come from different tables or passages of the source.

What was measured:
[1] = target: T1, PI3Kδ (Homo sapiens, UniProt O00329); assay: Enzyme binding assay (KINOMEscan, DiscoveRx); conditions: PIK3Cδ_h
T1 construct: purchased DiscoveRx Corporation, San Diego (contract service, KINOMEscan)
T1 sequence (O00329 1-1044): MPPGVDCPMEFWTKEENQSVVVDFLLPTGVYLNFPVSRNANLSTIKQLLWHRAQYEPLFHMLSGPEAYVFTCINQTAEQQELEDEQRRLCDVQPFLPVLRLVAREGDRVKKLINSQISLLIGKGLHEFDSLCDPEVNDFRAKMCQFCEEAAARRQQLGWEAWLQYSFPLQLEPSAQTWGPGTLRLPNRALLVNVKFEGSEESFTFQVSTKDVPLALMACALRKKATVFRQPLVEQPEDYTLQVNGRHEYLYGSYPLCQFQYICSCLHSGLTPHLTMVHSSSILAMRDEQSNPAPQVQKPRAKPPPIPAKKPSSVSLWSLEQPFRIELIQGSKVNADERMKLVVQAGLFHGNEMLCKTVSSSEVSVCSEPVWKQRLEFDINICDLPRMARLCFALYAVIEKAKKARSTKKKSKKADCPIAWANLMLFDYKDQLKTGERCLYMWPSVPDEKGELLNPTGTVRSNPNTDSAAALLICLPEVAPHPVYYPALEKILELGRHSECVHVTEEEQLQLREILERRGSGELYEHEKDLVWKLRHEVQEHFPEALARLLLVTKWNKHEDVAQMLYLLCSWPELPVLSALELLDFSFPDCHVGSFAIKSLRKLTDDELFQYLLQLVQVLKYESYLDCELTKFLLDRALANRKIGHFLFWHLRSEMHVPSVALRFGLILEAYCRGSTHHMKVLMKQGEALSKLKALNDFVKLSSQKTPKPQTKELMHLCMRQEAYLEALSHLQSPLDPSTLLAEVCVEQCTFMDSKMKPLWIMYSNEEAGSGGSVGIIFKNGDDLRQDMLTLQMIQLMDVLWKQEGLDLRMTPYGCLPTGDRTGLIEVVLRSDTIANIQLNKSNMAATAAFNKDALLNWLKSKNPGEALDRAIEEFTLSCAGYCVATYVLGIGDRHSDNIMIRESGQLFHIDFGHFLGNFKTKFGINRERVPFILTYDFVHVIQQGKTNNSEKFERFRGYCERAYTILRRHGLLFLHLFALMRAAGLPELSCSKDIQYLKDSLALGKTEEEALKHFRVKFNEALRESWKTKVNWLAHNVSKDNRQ
How it was run: (§1)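 Kinase binding measured via KINOMEscan, reported as affinity.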

[2] = target: T2, kinase enzymes (Homo sapiens, UniProt P48736); assay: Enzyme binding assay (KINOMEscan, DiscoveRx), further kinases of Table A; conditions: PIK3Cγ_h
T2 construct: purchased DiscoveRx Corporation, San Diego (contract service, KINOMEscan)
T2 sequence (P48736 whole entry): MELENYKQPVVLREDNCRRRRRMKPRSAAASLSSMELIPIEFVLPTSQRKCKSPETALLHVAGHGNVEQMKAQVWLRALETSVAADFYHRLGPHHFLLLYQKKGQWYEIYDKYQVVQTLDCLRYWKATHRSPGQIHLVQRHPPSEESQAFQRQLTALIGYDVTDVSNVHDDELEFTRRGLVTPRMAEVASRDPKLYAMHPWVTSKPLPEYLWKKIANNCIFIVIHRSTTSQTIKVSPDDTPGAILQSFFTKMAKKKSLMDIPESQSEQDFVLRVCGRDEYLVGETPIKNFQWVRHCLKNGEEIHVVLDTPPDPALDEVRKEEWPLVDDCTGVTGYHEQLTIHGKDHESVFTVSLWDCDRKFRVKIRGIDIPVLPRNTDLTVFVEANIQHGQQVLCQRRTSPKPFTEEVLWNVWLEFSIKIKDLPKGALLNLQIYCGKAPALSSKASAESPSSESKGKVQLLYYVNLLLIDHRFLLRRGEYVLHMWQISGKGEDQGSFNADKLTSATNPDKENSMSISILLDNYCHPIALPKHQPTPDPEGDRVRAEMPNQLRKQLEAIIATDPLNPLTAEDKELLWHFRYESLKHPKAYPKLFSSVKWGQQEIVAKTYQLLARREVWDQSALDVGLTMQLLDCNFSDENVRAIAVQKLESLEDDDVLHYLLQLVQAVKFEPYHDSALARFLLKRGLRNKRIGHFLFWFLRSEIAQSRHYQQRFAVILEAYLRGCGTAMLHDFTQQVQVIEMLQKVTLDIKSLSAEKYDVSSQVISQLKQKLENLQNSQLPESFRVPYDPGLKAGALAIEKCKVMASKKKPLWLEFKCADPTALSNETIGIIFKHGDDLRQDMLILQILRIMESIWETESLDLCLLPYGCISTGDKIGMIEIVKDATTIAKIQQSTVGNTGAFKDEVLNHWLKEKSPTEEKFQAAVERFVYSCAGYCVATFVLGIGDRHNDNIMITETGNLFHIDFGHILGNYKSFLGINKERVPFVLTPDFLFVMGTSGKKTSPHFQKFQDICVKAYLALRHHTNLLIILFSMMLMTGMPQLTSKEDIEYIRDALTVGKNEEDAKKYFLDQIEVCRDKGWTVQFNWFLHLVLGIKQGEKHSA
How it was run: as §1

[3] = target: T3, kinase enzymes (Homo sapiens, UniProt P42345); assay: as above; conditions: MTOR_h
T3 construct: purchased DiscoveRx Corporation, San Diego (contract service, KINOMEscan)
How it was run: as §1

[4] = target: T4, kinase enzymes (Homo sapiens, UniProt P42336); assay: as above; conditions: PIK3Cα_h
T4 construct: purchased DiscoveRx Corporation, San Diego (contract service, KINOMEscan)
T4 sequence (P42336 whole entry): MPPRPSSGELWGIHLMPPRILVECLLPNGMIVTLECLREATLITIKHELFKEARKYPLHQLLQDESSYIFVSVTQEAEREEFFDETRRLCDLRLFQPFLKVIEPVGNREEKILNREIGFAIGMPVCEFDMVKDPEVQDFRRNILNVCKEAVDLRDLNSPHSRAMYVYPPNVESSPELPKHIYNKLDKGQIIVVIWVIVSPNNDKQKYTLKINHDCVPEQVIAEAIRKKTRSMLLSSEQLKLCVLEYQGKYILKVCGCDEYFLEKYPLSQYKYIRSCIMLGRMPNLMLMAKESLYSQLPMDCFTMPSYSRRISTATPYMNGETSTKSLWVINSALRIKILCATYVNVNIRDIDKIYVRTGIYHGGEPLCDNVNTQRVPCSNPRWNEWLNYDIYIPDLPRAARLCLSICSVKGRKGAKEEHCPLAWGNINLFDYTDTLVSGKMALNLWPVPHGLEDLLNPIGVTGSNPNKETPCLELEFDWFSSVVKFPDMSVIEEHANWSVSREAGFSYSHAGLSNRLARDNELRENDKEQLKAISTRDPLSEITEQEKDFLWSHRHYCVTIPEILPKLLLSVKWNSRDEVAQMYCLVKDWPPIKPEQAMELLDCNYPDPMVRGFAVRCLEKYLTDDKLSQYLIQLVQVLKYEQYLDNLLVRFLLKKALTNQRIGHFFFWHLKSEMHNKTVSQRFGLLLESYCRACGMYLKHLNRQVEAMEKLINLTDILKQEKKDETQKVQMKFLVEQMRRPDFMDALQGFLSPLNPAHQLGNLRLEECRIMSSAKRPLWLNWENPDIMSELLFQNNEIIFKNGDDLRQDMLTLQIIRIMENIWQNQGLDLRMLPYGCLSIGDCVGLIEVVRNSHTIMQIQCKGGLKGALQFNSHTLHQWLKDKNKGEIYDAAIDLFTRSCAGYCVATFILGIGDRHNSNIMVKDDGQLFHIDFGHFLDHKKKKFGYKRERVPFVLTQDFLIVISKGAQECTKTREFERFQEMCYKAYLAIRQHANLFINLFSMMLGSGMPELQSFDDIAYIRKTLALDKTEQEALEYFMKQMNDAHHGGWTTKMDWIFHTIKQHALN
How it was run: as §1

[5] = tested on: Akt phosphorylated at Thr308 in PC-3 cells; assay: Cellular assay: phosphorylation of Akt at Thr308 in PC-3 cells (MSD ELISA); format: cell-based; conditions: PC-3 cells, 60 min compound incubation, MSD ELISA, read-out: IC50 pAkt_Thr308
How it was run: (§2)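 PC-3 cells were exposed to compound or 0.3% DMSO for 60 min at 37° C, 5% CO2, then lysed in ice-cold buffer. Phospho-Akt was captured on site-specific antibody-coated plates and detected with Sulfo-tag anti-total Akt by electrochemiluminescence. IC50 values came from five-concentration response curves.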

[6] = tested on: Akt phosphorylated at Ser473 in PC-3 cells; assay: Cellular assay: phosphorylation of Akt at Ser473 in PC-3 cells (MSD ELISA); format: cell-based; conditions: PC-3 cells, 60 min compound incubation, MSD ELISA, read-out: IC50 pAkt_S473
How it was run: as §2

[7] = target: T5, PI3Kβ (Homo sapiens, UniProt P42338); assay: Enzyme binding assay (KINOMEscan, DiscoveRx); conditions: PIK3Cβ_h, read-out: Kd PIK3Cβ_h
T5 construct: purchased DiscoveRx Corporation, San Diego (contract service, KINOMEscan)
T5 sequence (P42338 whole entry): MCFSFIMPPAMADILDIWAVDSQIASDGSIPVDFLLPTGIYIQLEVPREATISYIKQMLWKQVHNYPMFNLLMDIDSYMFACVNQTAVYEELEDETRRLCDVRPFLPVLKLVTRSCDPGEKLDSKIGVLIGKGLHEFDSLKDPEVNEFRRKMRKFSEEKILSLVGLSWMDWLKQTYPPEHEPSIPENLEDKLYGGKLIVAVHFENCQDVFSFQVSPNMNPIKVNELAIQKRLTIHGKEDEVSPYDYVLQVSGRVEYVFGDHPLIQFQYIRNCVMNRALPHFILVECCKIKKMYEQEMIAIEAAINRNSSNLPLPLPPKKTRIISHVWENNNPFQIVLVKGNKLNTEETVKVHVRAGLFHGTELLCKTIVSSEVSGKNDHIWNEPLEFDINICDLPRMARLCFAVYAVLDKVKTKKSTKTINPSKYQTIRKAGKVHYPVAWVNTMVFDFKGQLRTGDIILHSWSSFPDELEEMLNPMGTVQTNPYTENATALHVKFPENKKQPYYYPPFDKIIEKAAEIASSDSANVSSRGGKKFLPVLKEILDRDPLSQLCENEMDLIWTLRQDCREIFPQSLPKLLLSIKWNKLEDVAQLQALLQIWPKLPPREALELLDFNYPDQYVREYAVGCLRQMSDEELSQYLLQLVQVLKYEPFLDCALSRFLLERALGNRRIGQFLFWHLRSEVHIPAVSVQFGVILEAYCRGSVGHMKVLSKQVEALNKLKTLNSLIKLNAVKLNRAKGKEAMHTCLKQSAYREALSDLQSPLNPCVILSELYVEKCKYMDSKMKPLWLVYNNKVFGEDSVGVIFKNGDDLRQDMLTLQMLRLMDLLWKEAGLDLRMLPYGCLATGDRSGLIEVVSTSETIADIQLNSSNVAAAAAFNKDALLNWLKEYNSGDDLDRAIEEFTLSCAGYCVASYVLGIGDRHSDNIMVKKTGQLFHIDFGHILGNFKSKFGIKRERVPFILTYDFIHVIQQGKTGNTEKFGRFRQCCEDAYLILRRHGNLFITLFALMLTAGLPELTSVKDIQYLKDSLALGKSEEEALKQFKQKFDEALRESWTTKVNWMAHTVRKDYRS
How it was run: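 Reported Kd (nM) reflects inhibitor binding to the kinase, as measured by KINOMEscan technology.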

Compound | pKd [1] | melting point | pKd [2] | pKd [3] | pKd [4] | pIC50 ([5]; Homo sapiens, PC-3, 1 h) | pIC50 ([6]; Homo sapiens, PC-3, 1 h) | pKd [7] | pIC50 [5] | pIC50 [6]
NC1CCN(C(=O)c2cc(C3CCCN3c3cc(F)cc(F)c3)c3nc(N4CCOCC4)cnc3c2)CC1 (stereo not shown) [Compound 75] | 8.70 | 80 °C | 8.40 | < 4.52 | 7.52 | 9.00 | 8.70 | 10.00 |  | 
OC1CN(Cc2cc(C3CCCN3c3cc(F)cc(F)c3)c3nc(N4CCOCC4)cnc3c2)C1 (stereo not shown) [Compound 76] | 7.72 | 90 °C | 6.60 | < 4.52 | 7.30 | 8.15 | 8.15 | 10.00 |  | 
CC(Oc1cc(F)ccc1Br)c1cc(C(=O)N(C)C)cc2ncc(N3CCOCC3)nc12 (stereo not shown) [Compound 78] | 5.93 | 235 °C | 4.87 | < 4.52 | 5.43 | ~6.53 | ~6.66 | 7.82 |  | 
COC(=O)c1cc(C(C)Nc2cc(F)cc(F)c2)c2nc(N3CCOCC3)cnc2c1 (stereo not shown) [Compound 80] | 5.12 | 244 °C | 4.61 | < 4.52 | < 4.52 |  |  | 7.30 | ~7.10 | ~6.67
CC(Nc1cc(F)cc(F)c1)c1cc(C(=O)O)cc2ncc(N3CCOCC3)nc12 (stereo not shown) [Compound 83a] | 6.80 | 240 °C | 6.09 | 5.88 | 6.95 |  |  | 8.70 | < 6.29 | < 6.29
CC(Nc1cc(F)cc(F)c1)c1cc(CO)cc2ncc(N3CCOCC3)nc12 (stereo not shown) [Compound 84] | 7.02 | 80 °C | 5.89 | 5.07 | 6.16 | 7.49 | 7.25 | 9.00 |  | 
NCc1cc(C2CCCN2c2cc(F)cc(F)c2)c2nc(N3CCOCC3)cnc2c1 (stereo not shown) [Compound 96] | 7.08 | 80 °C | 6.52 | 4.76 | 6.44 | 7.70 | 7.60 | 9.40 |  | 
COC(=O)c1cc(C(C)N(C)c2cccc(F)c2)c2nc(N3CCOCC3)cnc2c1 (stereo not shown) [Compound 97] | < 4.52 | 146 °C | < 4.52 | < 4.52 | 4.72 | < 6.29 | < 6.29 | 6.67 |  | 
CC(c1cc(C(=O)O)cc2ncc(N3CCOCC3)nc12)N(C)c1cccc(F)c1 (stereo not shown) [Compound 98] | 6.02 | 240 °C | 6.36 | 5.65 | 6.32 | < 6.29 | < 6.29 | 7.33 |  | 
CN(CCO)Cc1cc(C2CCCN2c2cc(F)cc(F)c2)c2nc(N3CCOCC3)cnc2c1 (stereo not shown) [Compound 101] | 7.40 | 80 °C | 6.40 | < 4.52 | 6.58 | 7.85 | 7.68 | 9.40 |  | 
COCCNCc1cc(C2CCCN2c2cc(F)cc(F)c2)c2nc(N3CCOCC3)cnc2c1 (stereo not shown) [Compound 103] | 6.00 | 80 °C | 5.52 | 4.61 | 5.95 | 7.55 | 7.19 | 8.52 |  | 
CC(Nc1cccc(F)c1)c1cc(C(=O)N2CCOCC2)cc2ncc(N3CCOCC3)nc12 (stereo not shown) [Compound 104] | 6.58 | 80 °C | 4.75 | < 4.52 | 5.87 | 7.26 | 6.96 | 8.52 |  | 
CC(c1cc(C(=O)N2CCOCC2)cc2ncc(N3CCOCC3)nc12)N(C)c1cccc(F)c1 (stereo not shown) [Compound 105] | 6.06 | 161 °C | 4.55 | < 4.52 | 5.41 | 6.86 | 6.52 | 8.10 |  | 
COCCN(C)Cc1cc(C2CCCN2c2cc(F)cc(F)c2)c2nc(N3CCOCC3)cnc2c1 (stereo not shown) [Compound 112] | 6.69 | 80 °C | 5.62 | < 4.52 | 6.02 | ~7.21 | 6.76 | 9.00 |  | 
CC(Nc1cccc(Cl)c1)c1cc(C(=O)N2CCOCC2)cc2ncc(N3CCOCC3)nc12 (stereo not shown) [Compound 119] | 6.31 | 80 °C | 4.93 | < 4.52 | 5.65 | 7.09 | 6.98 | 8.70 |  | 
Cc1cccc(NC(C)c2cc(C(=O)N3CCOCC3)cc3ncc(N4CCOCC4)nc23)c1 (stereo not shown) [Compound 120] | 5.66 | 80 °C | < 4.52 | < 4.52 | 5.17 | 6.57 | 6.32 | 7.85 |  | 
COc1cccc(NC(C)c2cc(C(=O)N3CCOCC3)cc3ncc(N4CCOCC4)nc23)c1 (stereo not shown) [Compound 121] | 5.80 | 80 °C | < 4.52 | < 4.52 | 5.27 | ~6.48 | 6.46 | 8.00 |  | 
